Reference: publication PMC4704819, “Honey Bee Allatostatins Target Galanin/Somatostatin-Like Receptors and Modulate Learning: A Conserved Function?” (PLoS ONE, 2016)
Where a SMILES comes first, the peptide text is derived from it. Bridges are numbered along the chain shown (N, C = ends).

How the values were obtained:
Apime-ASTA-R = target: T1, Apime-ASTA-R (Apis mellifera, UniProt A0A7M7ILT1); assay: Intracellular calcium measurement, HEK293 cells expressing Apime-ASTA-R with Gαqi9 chimeric G protein; assay type: cell-based; details: HEK293 with Gαqi9, Fig 4D
T1 sequence (A0A7M7ILT1 1-361): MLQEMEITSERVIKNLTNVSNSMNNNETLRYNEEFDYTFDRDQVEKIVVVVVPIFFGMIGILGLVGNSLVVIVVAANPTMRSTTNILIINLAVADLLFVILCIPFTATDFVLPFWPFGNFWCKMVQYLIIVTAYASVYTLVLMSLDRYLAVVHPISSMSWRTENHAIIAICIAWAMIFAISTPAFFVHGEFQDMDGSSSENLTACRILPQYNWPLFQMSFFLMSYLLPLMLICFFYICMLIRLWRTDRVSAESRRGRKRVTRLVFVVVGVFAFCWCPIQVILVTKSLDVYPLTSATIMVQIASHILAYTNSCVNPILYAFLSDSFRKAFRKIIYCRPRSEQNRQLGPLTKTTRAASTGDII
Method: This vector contains an ATG initiation codon in phase with a mammalian signal peptide sequence of metabotropic glutamate receptor 5 to address receptor protein to the cell membrane, with a hemagglutinin sequence (TAG HA), and MluI and HindIII restriction sites used for cloning. The coding regions of the genes of interest were PCR amplified from cDNA template. After extraction from whole brains, 1 μg of total RNA was reverse-transcribed with random primers. […] PCR reactions included: 30s at 98°C, then 30 cycles of 10s at 98°C, 30s at 60°C, 1 min at 72°C and finally, 5 minutes at 72°C. Cloning required several amplification and digestion steps to insert the full cDNA sequences in the vector.
In all cases, 2 μg of plasmid DNA encoding the Gαqi9 chimeric G protein was included to enable artificial coupling of the receptors to phospholipase C. Electroporation (250 V, 800 μF, Biorad GenePulser X-cell) was performed in a total volume of 300 μl of electroporation buffer (50 mM K2HPO4, 20 mM CH3COOK, 20 mM KOH, 26.5 mM MgSO4, pH 7.4). After electroporation, cells were resuspended in 10 ml of culture medium and split (100 μl/well) into polyornithine-coated (Sigma #P3655), black-walled, clear bottom 96-well plates (Greiner bio-one #655090) and grown for a further 48 h prior to analyzing receptor properties. All products used for cell culture were purchased from Invitrogen Life Technologies.
Cells were washed with freshly prepared 20 mM Hepes, 1 mM MgSO4, 3.3 mM Na2CO3, 1.3 mM CaCl2, 0.1% BSA, 2.5 mM probenecid in 1X Hank's balanced salt solution (Gibco #14185), pH7.4 buffer and loaded with 1 μM Ca^2+-sensitive fluorescent dye Fluo-4 AM (Invitrogen # F14202) for 1 h at 37°C. Cells were washed once and incubated with 50 μl of buffer. A plate was prepared with the various concentrations of peptides to be tested, and 50 μl of 2X concentrated-drug solution was added in each well after 20 s of recording. Fluorescence signals (excitation 485 nm, emission 525 nm) were measured by using the fluorescence microplate reader Flexstation (Molecular Devices) at sampling intervals of 1.5 s for 60 s. All represented data correspond to means ± standard deviation (SD) from experiments performed in triplicate.
This method allows detecting ligand-induced activation of the receptor by measuring the release of intracellular calcium.

[1] = system: honey bees (Apis mellifera); assay: Olfactory generalization test; assay type: in vivo; details: 1μM, injected immediately after conditioning, test 1h later, N = 66, 75, 72; for response to nonanal vs control (GLM coefficient ± standard error): ASTA p = 0.38, ASTC p = 0.41, ASTCC p = 0.30; for response to 1-hexanol vs control (GLM coefficient ± standard error): ASTA p = 0.91, ASTC p = 0.96, ASTCC p = 0.56; for response to 1-nonanol (CS) vs control (GLM coefficient ± standard error): ASTA p = 0.96, ASTC p = 0.37, ASTCC p = 0.10
Method: The vehicle for allatostatins was a saline solution made of PBS containing the protease blocker, 1 mM PMSF (prepared from a 30mM stock solution in 100% ethanol, final concentration of ethanol 3.3%).
The allatostatins were injected into the head haemolymph after penetrating the median ocellus, either 1 hour before olfactory conditioning or sucrose responsiveness assessment, or immediately after olfactory conditioning. All injections were performed under a binocular microscope. A micromanipulator-controlled Hamilton syringe (Nanofil, equipped with a NF33BV2 needle, WPI) was used to inject approximately 200 nl of peptide solution. To make sure that the solution was properly injected, it was pushed out of the syringe so that a drop was visible and then the drop was put in contact with the haemolymph where it was quickly absorbed thanks to the respiratory movements of the bee. Any bee with excessive bleeding was discarded.
Bees that learned to respond to the conditioned stimulus (CS) at the end of conditioning were submitted to a generalization test 1h later. In addition to 1-nonanol (the CS), two novel odorants (nonanal and 1-hexanol) were presented: these were selected according to their respective high and low levels of perceptual similarity with 1-nonanol. All odorants were presented without reinforcement with sucrose. The order of odorant presentations varied across individuals, and the integrity of the reflexive response to sucrose was checked at the end of the test.
Functional data (receptor-mediated calcium, cAMP signals and binding) were plotted and regression curves were fitted using the GraphPad Prism software (San Diego, CA). The learning data were analyzed with generalized linear effects modeling (GLM) for binomial data using the R package lme4 [67]. Response levels recorded in the last conditioning trial were used to assess the effect of treatment on learning. For 1-hour memory and generalization tests, effects of allatostatin treatment were compared for each odor tested. Generalized linear mixed effects modeling (GLMM) was also used to analyze responsiveness to sucrose, with concentration and treatment as fixed factors and the bee identity and solution presented (either sucrose or water) as random factors. […] All statistics were generated in R [68].

Row | Compound | receptor activation (calcium), in words (Apime-ASTA-R) | response to nonanal vs control (GLM coefficient ± standard error) [1] | response to 1-hexanol vs control (GLM coefficient ± standard error) [1] | response to 1-nonanol (CS) vs control (GLM coefficient ± standard error) [1]
1 | CC(C)[C@@H]1NC(=O)[C@H](C)NC(=O)[C@H](CC(N)=O)NC(=O)[C@H](Cc2ccccc2)NC(=O)[C@H](Cc2ccc(O)cc2)NC(=O)[C@@H](NC(=O)[C@H](CCCNC(=N)N)NC(=O)[C@H](Cc2c[nH]c3ccccc23)NC(=O)[C@H](Cc2ccc(O)cc2)NC(=O)[C@@H](NC(=O)[C@H](CCCNC(=N)N)NC(=O)CNC(=O)[C@H](CCCCN)NC(=O)[C@H](C)NC(=O)[C@H](CCC(N)=O)NC(=O)CN)C(C)C)CSSC[C@@H](C(=O)N[C@@H](Cc2ccccc2)C(=O)O)NC(=O)[C@H]([C@@H](C)O)NC1=O [Apime-ASTCC] (H-GQAKGRVYWRCYFNAVTCF-OH; disulfide 11-18; N-terminus assumed) | not activated by either ASTC or ASTCC | 0.37±0.36 | 0.20±0.34 | 0.71±0.44
2 | CC(C)[C@@H]1NC(=O)[C@H](C)NC(=O)[C@H](CC(N)=O)NC(=O)[C@H](Cc2ccccc2)NC(=O)[C@H](C)NC(=O)[C@@H](NC(=O)[C@H](CCC(N)=O)NC(=O)[C@H](CCCCN)NC(=O)[C@H](Cc2c[nH]c3ccccc23)NC(=O)[C@H](Cc2ccc(O)cc2)NC(=O)[C@@H](N)CO)CSSC[C@@H](C(=O)N[C@@H](Cc2ccccc2)C(N)=O)NC(=O)[C@H](CO)NC1=O [Apime-ASTC] (H-SYWKQCAFNAVSCF-NH2; disulfide 6-13; N-terminus assumed) | not activated by either ASTC or ASTCC | 0.29±0.36 | 0.01±0.34 | 0.35±0.40
